According to PMC9267128, “New 2-[(4-Amino-6-N-substituted-1,3,5-triazin-2-yl)methylthio]-N-(imidazolidin-2-ylidene)-4-chloro-5-methylbenzenesulfonamide Derivatives, Design, Synthesis and Anticancer Evaluation” (International Journal of Molecular Sciences, 2022):

Legend:
MDM2-p53 interactions = experiment: Western blot of MDM2 and p53 protein levels in MCF-7 cells; format: cell-based, human; settings: 4 µM and 10 µM, 24-h incubation
Experimental: Thus, the effects of the examined compounds on the inhibition of MDM2-p53 interactions were examined. MDM2 and p53 protein levels were determined with Western blot analysis after the treatment of MCF-7 cells with compounds selected for their high selectivity index (48, 62, 134, 138, and 140). Compounds were examined at different concentrations (4 µM and 10 µM) following a 24-h incubation (Figure 7).
Proteins were transferred to an Immobilon-P PVDF membrane (Merck Millipore, Burlington, MA, USA). The membranes were incubated for 1 h using 5% low-fat milk solution in 1× TBS (50 mM Tris-Cl, pH 7.5, 150 mM NaCl) as a blocking buffer and then overnight at 4 °C in the same blocking solution containing one of the following antibodies: anti-MDM2 (rabbit, Sigma-Aldrich AB-166, Burlington, MA, USA), anti-p53 (rabbit, Sigma-Aldrich S15) or α-tubulin (rabbit, 11H10, Cell Signaling, Danvers, MA, USA). After washing (3 × 10 min in TBS), membranes were incubated for 2 h in room temperature with the adequate HRP-conjugated secondary antibody: goat anti-rabbit IgG (1:5000, Abcam, Cambridge, UK; cat. 97051). Membranes were developed using an HRP detection kit WesternBright Quantum (Advansta, San Jose, CA, USA; cat. K-12042).

MCF-7 cells = experiment: Cell cycle analysis by flow cytometry (PI staining) in MCF-7 cells; format: cell-based, human; settings: 48 h; for G0/G1 phase population of the cell cycle: MCF-7, 10 µM; for sub-G1 population of the cell cycle: MCF-7, 5, 10, 25 µM
Experimental: P53 controls cell proliferation through the regulation of the cell cycle. In order to determine p53-independent cell cycle arrest, the influence of selected compounds on the cell cycle distribution in MCF-7 cells was analyzed. Cells were treated with a concentration range of two selected compounds (140 and 48) for 48 h. Cell cycle distribution was analyzed with flow cytometry. […] Compound 140 at the lower concentration of 10 µM increased the G0/G1 population, whereas at the higher examined concentration of 25 µM, an increase in the G2/M phase of the cell cycle was observed.
Cell cycle distribution was analyzed with flow cytometry analysis with PI staining. MCF-7 cells were treated with compounds 48 and 140 (5, 10, 25 µM) for 48 h. Following treatment, the cells were collected and fixed in cold 70% ethanol for 24 h. The fixed cells were washed with PBS and incubated with 100 µg/mL RNAse (Invitrogen, Germany) and stained with 10 µg/mL PI (Invitrogen, Germany) for 30 min at RT. A total of 10^4 cells were examined with a FACSCalibur cytometer (BD) and data was analyzed with Flowing software (version 2.5).

| SMILES | MDM2 and p53 protein levels (MDM2-p53 interactions) | G0/G1 phase population of the cell cycle (MCF-7 cells) | sub-G1 population of the cell cycle (MCF-7 cells) | G2/M phase population of the cell cycle (MCF-7 cells; MCF-7, 25 µM) |
| --- | --- | --- | --- | --- |
| Cc1cc(S(=O)(=O)N=C2NCCN2Cc2ccccc2)c(SCc2nc(N)nc(N3CCc4ccccc43)n2)cc1Cl [Compound 48] | no changes | significant increase | concentration-dependent increase | – |
| Cc1cc(S(=O)(=O)N=C2NCCN2Cc2ccc(C(F)(F)F)cc2)c(SCc2nc(N)nc(N3CCN(Cc4ccccc4)CC3)n2)cc1Cl [Compound 140] | no changes | increased | concentration-dependent increase | increase |
